Test results as given in US6215002A, “Pyrrolopyrrolone derivatives as inhibitors of neutrophil elastase” (priority 1996, dated 2001).
Where a name gives a salt, the structure may show the parent alone.

target: T1, human neutrophil elastase (Homo sapiens, UniProt P08246); experiment: In vitro assay of human neutrophil elastase (HNE); assay type: biochemical; settings: 118 nM purified human neutrophil elastase, pH 8.6, 15 min incubation at 30° C., MeO-succinyl-alanyl-alanyl-prolyl-valyl-p-nitroanilide substrate; read-out: HNE IC50
T1 sequence (P08246 30-267): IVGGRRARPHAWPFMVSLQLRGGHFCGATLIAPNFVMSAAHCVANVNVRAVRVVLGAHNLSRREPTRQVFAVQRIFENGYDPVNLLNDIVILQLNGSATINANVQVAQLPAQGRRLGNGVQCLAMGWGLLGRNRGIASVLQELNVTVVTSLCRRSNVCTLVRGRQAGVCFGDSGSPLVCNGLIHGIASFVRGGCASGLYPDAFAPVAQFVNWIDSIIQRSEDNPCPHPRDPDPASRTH
How it was run: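 Residual activity was taken as the 10 min rate of absorbance rise at 405 nm after adding 0.6 mM MeO-succinyl-AAPV-p-nitroanilide. Curve fitting of activity against concentration gave IC50.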

How did the IC50 turn out when `CCC[C@H]1C(=O)N(S(C)(=O)=O)[C@H]2CCN(C(=O)c3ccccn3)[C@H]12` (relative stereo) [Example 238, rel-(3R,3aR,6aS)-1-Methanesulfonyl-3-propyl-4-(pyridine-2-carbonyl)-hexahydro-pyrrolo[3,2-b]pyrrol-2-one] was run?
The IC50 was 9 nM.

For “rel-(3aS,6R,6aR)-6-Allyl-4-benzylsulfamoyl-5-oxo-hexahydro-pyrrolo[3,2-b]pyrrole-1-carboxylic acid benzyl ester [Example 19]”, which IC50 is on record?
The IC50 was 5230 nM.

For `CCC[C@H]1C(=O)N(S(=O)(=O)c2ccc3ccccc3c2)[C@H]2CCN(C(=O)CCCCCN3CCCCC3)[C@H]12` (relative stereo) [Example 40, rel-(3R,3aR,6aS)-1-(Naphthalene-2-sulfonyl)-4-(6-piperidin-1-yl-hexanoyl)-3-propyl-hexahydro-pyrrolo[3,2-b]pyrrol-2-one tartrate], which IC50 is on record?
The IC50 was 50 nM.

How did the IC50 turn out when `CC(=O)Nc1ccc(S(=O)(=O)N2CC[C@H]3[C@H]2[C@@H](C(C)C)C(=O)N3S(C)(=O)=O)cc1` (relative stereo) [Example 210, rel-N-[4-(6R-Isopropyl-4-methanesufonyl-5-oxo-hexahydro-(3aS,6aR)-pyrrolo[3,2-b]pyrrole-1-sulfonyl)-phenyl]-acetamide] was run?
Its IC50 is 103 nM.

Which IC50 does the source give for `CCC[C@H]1C(=O)N(S(C)(=O)=O)[C@H]2CCN(C(=O)CCCCCCCCCN3CCCCC3)[C@H]12` (relative stereo) [Example 70, rel-(3R,3aR,6aS)-1-Methanesulfonyl-4-(10-piperidin-1-yl-decanoyl)-3-propyl-hexahydro-pyrrolo[3,2-b]pyrrol-2-one DL-tartrate] here?
The IC50 was 41 nM.

`CCC[C@H]1C(=O)N(S(C)(=O)=O)[C@H]2CCN(C(=O)CN(C)C)[C@H]12` (relative stereo) [Example 102, rel-(3R,3aR,6aS)-4-Dimethylaminoacetyl-1-methanesulfonyl-3-propyl-hexahydro-pyrrolo[3,2-b]pyrrol-2-one hydrochloride] was tested. Which IC50 did it give?
The IC50 was 91 nM.

`CCC[C@H]1C(=O)N(S(C)(=O)=O)[C@H]2CCN(C(=O)CN3CCOCC3)[C@H]12` (relative stereo) [Example 107, rel-(3R,3aR,6aS)-1-Methanesulfonyl-4-morpholin-4-yl-acetyl)-3-propyl-hexahydro-pyrrolo[3,2-b]pyrrol-2-one hydrochloride] was tested. Which IC50 did it give?
Its IC50 is 143 nM.

`CCC[C@H]1C(=O)N(S(C)(=O)=O)[C@H]2CCN(C(=O)CCCCCN(C)C)[C@H]12` (relative stereo) [Example 77, rel-(3R,3aR,6aS)-4-(6-Dimethylamino-hexanoyl)-1-methanesulfonyl-3-propyl-hexahydro-pyrrolo[3,2-b]pyrrol-2-one DL-tartrate] was tested. Which IC50 did it give?
Its IC50 is 134 nM.

With `CCC[C@H]1C(=O)N(S(=O)(=O)c2cccc3ccccc23)[C@H]2CCN(S(=O)(=O)Cc3cccc(-c4nn[nH]n4)c3)[C@H]12` (relative stereo) [Example 32, rel-(3R,3aR,6aS)-1-(Naphthalene-1-sulfonyl)-3-propyl-4-[3-(1H-tetrazol-5-yl)-phenylmethanesulfonyl]-hexahydro-pyrrol[3,2-b]pyrrol-2-one] as the molecule, how does the IC50 read?
Its IC50 is 286 nM.

`C/C=C/C(=O)N1CC[C@H]2[C@H]1[C@@H](CCC)C(=O)N2S(C)(=O)=O` (relative stereo) [Example 131, rel-(3R,3aR,6aS)-4-But-2E-enoyl-1-methanesulfonyl-3-propyl-hexahydro-pyrrolo[3,2-b]pyrrol-2-one] was tested. Which IC50 did it give?
Its IC50 is 102 nM.

For `CCC[C@H]1C(=O)N(S(=O)(=O)CC(F)(F)F)[C@H]2CCN(C(=O)CCN3CCCCC3)[C@H]12` (relative stereo) [Example 164, rel-(3R,3aR,6aS)-4-(3-Piperidin-1-yl-propionyl)-3-propyl-1-(2,2,2-trifluoro-ethanesulfonyl)-hexahydro-pyrrolo[3,2-b]pyrrol-2-one DL-tartrate], which IC50 is on record?
The IC50 was 413 nM.

For `CCC[C@H]1C(=O)N(S(C)(=O)=O)[C@H]2CCN(C(=O)CCCN(C)c3ccccc3)[C@H]12` (relative stereo) [Example 88, rel-(3R,3aR,6aS)-1-Methanesulfonyl-4-[4-(methyl-phenyl-amino)-butyryl]-3-propyl-hexahydro-pyrrolo[3,2-b]pyrrol-2-one hydrochloride], which IC50 is on record?
The IC50 was 75 nM.

How did the IC50 turn out when `CCC[C@H]1C(=O)N(S(C)(=O)=O)[C@H]2CCN(C(=O)CCCCCN3CCN(C)CC3)[C@H]12` (relative stereo) [Example 79, rel-(3R,3aR,6aS)-1-Methanesulfonyl-4-[6-(4-methyl-piperazin-1-yl)-hexanoyl]-3-propyl-hexahydro-pyrrolo[3,2-b]pyrrol-2-one dihydrochloride] was run?
The IC50 was 50 nM.

With `CCC[C@H]1C(=O)N(S(=O)(=O)c2ccccc2)[C@H]2CCN(C(=O)CCCCCN3CCCCC3)[C@H]12` (relative stereo) [Example 206, rel-(3R,3aR,6aS)-1-Benzenesulfonyl-4-(6-piperidin-1-yl-hexanoyl)-3-propyl-hexahydro-pyrrol[3,2-b]pyrrol-2-one DL-tartrate] as the molecule, how does the IC50 read?
Its IC50 is 87 nM.

For `CCC[C@H]1C(=O)N(S(=O)(=O)c2cccc3ccccc23)[C@H]2CCN(S(C)(=O)=O)[C@H]12` (relative stereo) [Example 31, rel-(3R,3aR,6aS)-4-Methanesulfonyl-1-(naphthalene-1-sulfonyl)-3-propyl-hexahydro-pyrrolo[3,2-b]pyrrol-2-one], which IC50 is on record?
Its IC50 is 80 nM.

`CCC[C@H]1C(=O)N(S(=O)(=O)/C=C/c2ccccc2)[C@H]2CCN(S(=O)(=O)Cc3ccccc3)[C@H]12` (relative stereo) [Example 33, rel-(3R,3aR,6aS)-1-(2-Phenyl-(E)-ethenesulfonyl)-4-phenylmethanesulfonyl-3-propyl-hexahydro-pyrrolo[3,2-b]pyrrol-2-one] was tested. Which IC50 did it give?
The IC50 was 458 nM.

With `CCC[C@H]1C(=O)N(S(C)(=O)=O)[C@H]2CCN(C(=O)CCCCCN(C)c3ccccc3)[C@H]12` (relative stereo) [Example 81, rel-(3R,3aR,6aS)-1-Methanesulfonyl-4-[6-(methyl-phenyl-amino)-hexanoyl]-3-propyl-hexahydro-pyrrolo[3,2-b]pyrrol-2-one hydrochloride] as the molecule, how does the IC50 read?
Its IC50 is 67 nM.

`C=CC[C@H]1C(=O)N(S(=O)(=O)c2ccc3ccccc3c2)[C@H]2CCN(C(=O)OCc3ccccc3)[C@H]12` [Example 55, (3aS,6R,6aR)-6-Allyl-4-(naphthalene-2-sulfonyl)-5-oxo-hexahydro-pyrrolo[3,2-b]pyrrole-1-carboxylic acid benzyl ester] was tested. Which IC50 did it give?
The IC50 was 38 nM.

With `C=CC[C@H]1C(=O)N(S(=O)(=O)c2cccc([N+](=O)[O-])c2)[C@H]2CCN(C(=O)OCc3ccccc3)[C@H]12` (relative stereo) [Example 38, rel-(3aS,6R,6aR)-6-Allyl-4-(3-nitro-benzenesulfonyl)-5-oxo-hexahydro-pyrrolo[3,2-b]pyrrole-1-carboxylic acid benzyl ester] as the molecule, how does the IC50 read?
The IC50 was 205 nM.

`CCC[C@H]1C(=O)N(S(C)(=O)=O)[C@H]2CCN(C(=O)CCCCCCCCCN3CCCC3)[C@H]12` (relative stereo) [Example 71, rel-(3R,3aR,6aS)-1-Methanesulfonyl-3-propyl-4-(10-pyrrolidin-1-yl-decanoyl)-hexahydro-pyrrolo[3,2-b]pyrrol-2-one hydrochloride] was tested. Which IC50 did it give?
Its IC50 is 35 nM.

For `CCC[C@H]1C(=O)N(S(C)(=O)=O)[C@H]2CCN(C(=O)CCCCCCCCCN(CC)CC)[C@H]12` (relative stereo) [Example 65, rel-(3R,3aR,6aS)-4-(10-Diethylamino-decanoyl)-1-methanesulfonyl-3-propyl-hexahydro-pyrrolo[3,2-b]pyrrol-2-one DL-tartrate], which IC50 is on record?
The IC50 was 66 nM.

With `CCC[C@H]1C(=O)N(S(C)(=O)=O)[C@H]2CCN(C(=O)CCCN3CCCCC3)[C@H]12` (relative stereo) [Example 87, rel-(3R,3aR,6aS)-1-Methanesulfonyl-4-(4-piperidin-1-yl-butyryl)-3-propyl-hexahydro-pyrrolo[3,2-b]pyrrol-2-one DL-tartrate] as the molecule, how does the IC50 read?
The IC50 was 96 nM.

With `CCC[C@H]1C(=O)N(S(=O)(=O)c2cccc3nsnc23)[C@H]2CCN(C(=O)CCN3CCCCC3)[C@H]12` (relative stereo) [Example 168, rel-(3R,3aR,6aS)-1-(Benzo[1,2,5]thiadiazole-4-sulfonyl)-4-(3-piperidin-1-yl-propionyl)-3-propyl-hexahydro-pyrrolo[3,2-b]pyrrol-2-one DL-tartrate] as the molecule, how does the IC50 read?
Its IC50 is 208 nM.

For `CCC[C@H]1C(=O)N(S(C)(=O)=O)[C@H]2CCN(C(=O)CCCCCCCCCN3CCOCC3)[C@H]12` (relative stereo) [Example 64, rel-(3R,3aR,6aS)-1-Methanesulfonyl-4-(10-morpholin-4-yl-decanoyl)-3-propyl-hexahydro-pyrrolo[3,2-b]pyrrol-2-one DL-tartrate], which IC50 is on record?
The IC50 was 26 nM.

Which IC50 does the source give for `CCC[C@H]1C(=O)N(S(C)(=O)=O)[C@H]2CCN(S(=O)(=O)c3ccc(Cl)cc3)[C@H]12` (relative stereo) [Example 215, rel-(3R,3aR,6aS)-4-(4-Chloro-benzenesulfonyl)-1-methanesulfonyl-3-propyl-hexahydro-pyrrolo[3,2-b]pyrrol-2-one] here?
Its IC50 is 28 nM.

Which IC50 does the source give for `CCC[C@H]1C(=O)N(S(C)(=O)=O)[C@H]2CCN(C(=O)CN(C)c3ccccc3)[C@H]12` (relative stereo) [Example 103, rel-(3R,3aR,6aS)-1-Methanesulfonyl-4-[(methyl-phenyl-amino)-acetyl]-3-propyl-hexahydro-pyrrolo[3,2-b]pyrrol-2-one hydrochloride] here?
Its IC50 is 104 nM.

For `CCC[C@H]1C(=O)N(S(C)(=O)=O)[C@H]2CCN(C(=O)c3ccccc3)[C@H]12` (relative stereo) [Example 233, rel-(3R,3aR,6aS)-4-Benzoyl-1-methanesulfonyl-3-propyl-hexahydro-pyrrolo[3,2-b]pyrrol-2-one], which IC50 is on record?
Its IC50 is 62 nM.
